Among the data in US4877795A, “4H-quinolizin-4-one compounds useful for the treatment of allergic bronchial asthma, allergic rhinitis atropic dermatitis and the like” (Kissei Pharmaceutical Co., Ltd., priority 1987, dated 1989) are inhibition values, retold here.

Broadly, the inhibition is the drop in the measured response relative to a control, in per cent. Read a high inhibition as a strong effect.

Structures are written as SMILES.

The test system of assay [1] is IgE. Put plainly: Determination of Igs produced in in vitro culture: inhibition of IgE secreted by spleen cells (adoptive secondary immune response to DNP-As), ELISA. Format: cell-based, BALB/c mice. The following applies: Mus musculus, 96 h, 4 days culture; for inhibition at 1 µg/mL: 1.0 μg/ml; for inhibition at 40 µg/mL: 40.0 μg/ml; for inhibition at 5 µg/mL: 5.0 μg/ml; for inhibition at 2.5 µg/mL: 2.5 μg/ml; for inhibition at 0.25 µg/mL: 0.25 μg/ml. Here is the method: (§1) Determination of Igs produced in in vitro culture
(§2) BALB/c mice were immunized intraperitoneally with 5 μg of DNP-As adsorbed in 4 mg aluminum hydroxide gel. 4 weeks after the immunization, the spleens were excised from the mice and 5×10^7 spleen cells were transferred intravenously into the recipient mice which had been exposed to 600 rad of X-ray irradiation. Immediately after cell transfer, the recipients were then immunized intraperitoneally with 5 μg of DNP-As adsorbed in 4 mg aluminum hydroxide gel to induce adoptive secondary immune response. Further 4 weeks after the immunization of recipients, the spleens were excised from them and the spleen cell suspensions 5×10^6 cells/ml were cultured with or without a compound to be tested in 96-well micro plates at 37° C. for 4 days. IgE and IgG secreted into the culture supernatant was each determined correspondingly by ELISA and the inhibitory effect was calculated according to the following equation. [formula]

Assay [2] deals with IgG. The experiment in a line: Determination of Igs produced in in vitro culture: inhibition of IgG secreted by spleen cells (adoptive secondary immune response to DNP-As), ELISA. The note with it: Mus musculus, 96 h, 4 days culture; for inhibition at 1 µg/mL: 1.0 μg/ml; for inhibition at 40 µg/mL: 40.0 μg/ml; for inhibition at 5 µg/mL: 5.0 μg/ml; for inhibition at 2.5 µg/mL: 2.5 μg/ml; for inhibition at 0.25 µg/mL: 0.25 μg/ml. The assay is classed as cell-based, BALB/c mice. How it is done:
as §1, §2
(In general: ELISA stands for enzyme-linked immunosorbent assay.)

With `CSc1c(C#N)c(=O)n2ccccc2c1C(=O)OCc1ccc(Br)cc1` [S-23, 4'-Bromobenzyl 3-cyano-2-methylthio-4H-quinolizin-4-one-1-carboxylate], the inhibition at 1 µg/mL in assay [1] was 79%; in assay [2] it was 34%.

On to `CSc1c(C#N)c(=O)n2ccccc2c1C(=O)OC(C)c1ccccc1` (centres unmarked) [S-24, 1'-Phenylethyl 3-cyano-2-methylthio-4H-quinolizin-4-one-1-carboxylate], for which the inhibition at 40 µg/mL turned out to be 77% in assay [1] and 54% in assay [2].

With `CSc1c(C#N)c(=O)n2ccccc2c1C(=O)OCc1ccc(C)c(C)c1` [S-25, 3',4'-Dimethylbenzyl 3-cyano-2-methylthio-4H-quinolizin-4-one-1-carboxylate], the inhibition at 5 µg/mL is 75% in assay [1] and 54% in assay [2].

As to `CSc1c(C#N)c(=O)n2ccccc2c1C(=O)OCc1ccc2c(c1)OCO2` [S-26, Piperonyl 3-cyano-2-methylthio-4H-quinolizin-4-one-1-carboxylate], the results for the inhibition at 40 µg/mL in assay [1] and in assay [2] were 48% and 17%, respectively.

As for `COc1cc(COC(=O)c2c(SC)c(C#N)c(=O)n3ccccc23)cc(OC)c1OC` [S-27, 3',4',5'-Trimethoxybenzyl 3-cyano-2-methylthio-4H-quinolizin-4-one-1-carboxylate], the inhibition at 2.5 µg/mL was 56% in assay [1] and 16% in assay [2].

Take `CSc1c(C#N)c(=O)n2ccc(C)cc2c1C(=O)OCc1ccccc1` [S-28, Benzyl 3-cyano-8-menthyl-2-methylthio-4H-quinolizin-4-one-1-carboxylate]: the inhibition at 2.5 µg/mL in assay [1] turned out to be 49%; in assay [2], 24%.

Take `CSc1c(C#N)c(=O)n2ccccc2c1C(=O)OCc1ccccc1` [S-29, Benzyl 3-cyano-2-methylthio-4H-quinolizin-4-one-1-carboxylate]: the inhibition at 1 µg/mL was found to be 69% in assay [1] and 31% in assay [2].

`CSc1c(C#N)c(=O)n2ccccc2c1C(=O)OC(C)c1ccc(Br)cc1` (centres unmarked) [S-30, 1'-(4-Bromophenyl)ethyl 3-cyano-2-methylthio-4H-quinolizin-4-one-1-carboxylate]: the inhibition at 0.25 µg/mL in assay [1] stood at 45%; in assay [2] it was 27%.

Turning to `COc1ccc(COC(=O)c2c(SC)c(C#N)c(=O)n3ccccc23)cc1` [S-31, 4'-Methoxybenzyl 3-cyano-2-methylthio-4H-quinolizin-4-one-1-carboxylate], the inhibition at 40 µg/mL came out at 34% in assay [1] and 3% in assay [2].

As to `CSc1c(C#N)c(=O)n2ccccc2c1C(=O)OC(C)c1ccc(C#N)cc1` (centres unmarked) [S-32, 1'-(4-Cyanophenyl)ethyl 3-cyano-2-methylthio-4H-quinolizin-4-one-1-carboxylate], the inhibition at 1 µg/mL worked out at 52% in assay [1] and 28% in assay [2].

In the case of `CCOc1ccc(COC(=O)c2c(SC)c(C#N)c(=O)n3ccccc23)cc1` [S-33, 4'-Ethoxybenzyl 3-cyano-2-methylthio-4H-quinolizin-4-one-1-carboxylate], the values for the inhibition at 20 µg/mL in assay [1] (20.0 μg/ml) and in assay [2] (20.0 μg/ml) were 81% and 47%, respectively.

As to `CSc1c(C#N)c(=O)n2ccccc2c1C(=O)OCc1ccc(F)cc1` [S-34, 4'-Fluorobenzyl 3-cyano-2-methylthio-4H-quinolizin-4-one-1-carboxylate], the inhibition at 0.25 µg/mL in assay [1] worked out at 52%; in assay [2], 31%.

As for `COc1cccc(COC(=O)c2c(SC)c(C#N)c(=O)n3ccccc23)c1` [S-35, 3'-Methoxybenzyl 3-cyano-2-methylthio-4H-quinolizin-4-one-1-carboxylate], the inhibition at 1 µg/mL in assay [1] worked out at 64%; in assay [2], 45%.

Take `CSc1c(C#N)c(=O)n2ccccc2c1C(=O)OCc1ccc(C(C)C)cc1` [S-36, 4'-Isopropylbenzyl 3-cyano-2-methylthio-4H-quinolizin-4-one-1-carboxylate]: the inhibition at 0.25 µg/mL in assay [1] is 33%; in assay [2], 8%.

With `COc1ccccc1COC(=O)c1c(SC)c(C#N)c(=O)n2ccccc12` [S-37, 2'-Methoxybenzyl 3-cyano-2-methylthio-4H-quinolizin-4-one-1-carboxylate], the inhibition at 0.25 µg/mL in assay [1] was 36%; in assay [2], 11%.

As for `CSc1c(C#N)c(=O)n2ccccc2c1C(=O)OCc1cccc(Cl)c1` [S-38, 3'-Chlorobenzyl 3-cyano-2-methylthio-4H-quinolizin-4-one-1-carboxylate], the results for the inhibition at 1 µg/mL in assay [1] and in assay [2] were 77% and 43%, respectively.

`CSc1c(C#N)c(=O)n2ccccc2c1C(=O)OCc1ccccc1Cl` [S-39, 2'-Chlorobenzyl 3-cyano-2-methylthio-4H-quinolizin-4-one-1-carboxylate]: the inhibition at 1 µg/mL in assay [1] amounted to 65%; in assay [2], 31%.

Regarding `CSc1c(C#N)c(=O)n2ccccc2c1C(=O)OCc1ccc(-c2ccccc2)cc1` [S-40, 4'-phenylbenzyl 3-cyano-2-methylthio-4H-quinolizin-4-one-1-carboxylate], the inhibition at 0.25 µg/mL in assay [1] turned out to be 53%; in assay [2], 34%.

For `CSc1c(C#N)c(=O)n2ccccc2c1C(=O)OCc1ccc2ccccc2c1` [S-41, 2'-Napthylmethyl 3-cyano-2-methylthio-4H-quinolizin-4-one-1-carboxylate], the inhibition at 1 µg/mL turned out to be 86% in assay [1] and 68% in assay [2].

For `CSc1c(C#N)c(=O)n2ccccc2c1C(=O)OCc1cccc2ccccc12` [S-42, 1'-Naphthylmethyl 3-cyano-2-methylthio-4H-quinolizin-4-one-1-carboxylate], the inhibition at 1 µg/mL was 75% in assay [1] and 43% in assay [2].

As to `CSc1c(C#N)c(=O)n2ccccc2c1C(=O)OC(C)Cc1ccccc1` (centres unmarked) [S-43, 1'-Methyl-2'-phenylethyl 3-cyano-2-methylthio-4H-quinolizin-4-one-1-carboxylate], the inhibition at 1 µg/mL was 75% in assay [1] and 46% in assay [2].

Take `CSc1c(C#N)c(=O)n2ccccc2c1C(=O)OCC(c1ccccc1)c1ccccc1` [S-44, 2',2'-Diphenylethyl 3-cyano-2-methylthio-4H-quinolizin-4-one-1-carboxylate]: the inhibition at 1 µg/mL in assay [1] turned out to be 54%; in assay [2], 18%.

`CSc1c(C#N)c(=O)n2ccccc2c1C(=O)OCCCc1ccccc1` [S-45, 3'-Phenylpropyl 3-cyano-2-methylthio-4H-quinolizin-4-one-1-carboxylate]: the inhibition at 5 µg/mL in assay [1] is 71%; in assay [2], 16%.

With `CSc1c(C#N)c(=O)n2ccccc2c1C(=O)OC(C)CCc1ccccc1` (centres unmarked) [S-46, 1'-Methyl-3'-phenylpropyl 3-cyano-2-methylthio-4H-quinolizin-4-one-1-carboxylate], the inhibition at 1 µg/mL in assay [1] is 90%; in assay [2], 79%.

Take `CSc1c(C#N)c(=O)n2ccccc2c1C(=O)OC/C=C/c1ccccc1` [S-47, trans-Cinnamyl 3-cyano-2-methylthio-4H-quinolizin-4-one-1-carboxylate]: the inhibition at 40 µg/mL in assay [1] was 60%; in assay [2], 28%.

As for `CSc1c(C#N)c(=O)n2ccccc2c1C(=O)OCCc1ccccc1` [S-48, 2'-Phenylethyl 3-cyano-2-methylthio-4H-quinolizin-4-one-1-carboxylate], the inhibition at 1 µg/mL in assay [1] worked out at 57%; in assay [2] it was 15%.

Take `CSc1c(C#N)c(=O)n2ccccc2c1C(=O)OCCCCc1ccccc1` [S-49, 4'-Phenylbutyl 3-cyano-2-methylthio-4H-quinolizin-4-one-1-carboxylate]: the inhibition at 1 µg/mL in assay [1] stood at 80%; in assay [2], 56%.

Take `CSc1c(C#N)c(=O)n2ccc(C)cc2c1C(=O)OCCc1ccccc1` [S-50, 2'-Phenylethyl 3-cyano-8-methyl-2-methylthio-4H-quinolizin-4-one-1-carboxylate]: the inhibition at 1 µg/mL in assay [1] stood at 64%; in assay [2], 42%.

As for `CSc1c(C#N)c(=O)n2ccc(C)cc2c1C(=O)OCCCc1ccccc1` [S-51, 3'-Phenylpropyl 3-cyano-8methyl-2-methylthio-4H-quinolizin-4-one-1-carboxylate], the figures for the inhibition at 1 µg/mL in assay [1] and in assay [2] were 65% and 43%, respectively.

For the compound `CCSc1c(C#N)c(=O)n2ccccc2c1C(=O)OCCCc1ccccc1` [S-52, 3'-Phenylpropyl 3-cyano-2-ethylthio-4H-quinolizin-4-one-1-carboxylate], the inhibition at 0.25 µg/mL is 46% in assay [1] and 17% in assay [2].

Take `CSc1c(C#N)c(=O)n2ccccc2c1C(=O)OCCOc1ccc(Cl)cc1` [S-53, 2'-(4-Chorophenoxy)ethyl 3-cyano-2-methylthio-4H-quinolizin-4-one-1-carboxylate]: the inhibition at 0.25 µg/mL in assay [1] came to 69%; in assay [2], 49%.

As to `CSc1c(C#N)c(=O)n2ccccc2c1C(=O)OCCCOc1ccccc1` [S-54, 3'-Phenoxypropyl 3-cyano-2-methylthio-4H-quinolizin-4-one-1-carboxylate], the inhibition at 1 µg/mL in assay [1] worked out at 73%; in assay [2] it was 50%.

On to `CSc1c(C#N)c(=O)n2ccccc2c1C(=O)OCCSc1ccccc1` [S-55, 2'-Phenylthioethyl 3-cyano-2-methylthio-4H-quinolizin-4-one-1-carboxylate], for which the inhibition at 0.25 µg/mL in assay [1] is 51%; in assay [2], 29%.

Regarding `C=C(C)CSc1c(C#N)c(=O)n2ccccc2c1C(=O)OCC` [S-56], the inhibition at 5 µg/mL in assay [1] came out at 70%; in assay [2], 30%.
